Measured values published in patent US20240417398A1, “TETRAHYDRONAPTHYRIDINE AND RELATED ANALOGS FOR INHIBITING YAP/TAZ-TEAD” (SpringWorks Therapeutics, Inc., priority 2023, published 2024).

test system: YAP/TAZ-TEAD transcription; assay: Reporter gene assay for measuring the inhibition of YAP/TAZ-TEAD transcription (TEAD-responsive element luciferase reporter, Hek293T cells); type: cell-based; conditions: Homo sapiens, HEK-293T, 24 h, Hek293T cells transfected with TEAD-responsive element luciferase reporter, 24 hours incubation
Experimental: Hek293T cells were cultured in DMEM supplemented with 10% fetal bovine serum, Sodium pyruvate, Sodium bicarbonate, L-glutamine. The cells were harvested and transiently transfected with TEAD-responsive element luciferase reporter. Transfected cells were plated in 384-well plate containing pre-diluted compounds. After 24 hours incubation at 37° C./5% CO2, assay plates were cooled to room temperature and levelled to an equal volume per well, prior to the addition of 25 uL luciferase substrate SteadyLite (Perkin Elmer)/well. The plate was shaken for 10 min at 600 rpm, centrifuged for 1 min at 500 rpm and measured with an Envision reader (PerkinElmer). The amount of relative light units produced by the TEAD reporter was used to calculate the percentage of inhibition.
The percent of reporter inhibition was calculated in the presence of a positive control inhibitor (100% inhibition) versus a condition with the presence of the vehicle basal activity of the reporter (0% inhibition). The ability of a test compound to inhibit this activity was determined as: Percentage inhibition=[1-((RLU determined in the presence of vehicle−RLU determined for sample with test compound present) divided by (RLU determined in the presence of vehicle−RLU determined for sample with positive control inhibitor))]*100.
The activities of example compounds tested are depicted in Table 3. The activity ranges A, B and C refer to IC50 values in the reporter gene assay as follows: “A”: IC50<1 μM; “B”: 1 μM≤IC50 10 μM and “C”: IC50>10 μM; NT=not tested.

Row | IC50 [nM] | SMILES
1 | > 10000 | Cn1cncc1C(=O)NCC1Cc2ncccc2N(c2ccc(C(F)(F)F)cc2)C1 (stereo not shown) [Cpd. No. 30, 1-methyl-N-((1-(4-(trifluoromethyl)phenyl)-1,2,3,4-tetrahydro-1,5-naphthyridin-3-yl)methyl)-1H-imidazole-5-carboxamide]
2 | < 1000 | [2H]C([2H])([2H])C(=O)NCC1Cc2ncccc2N(c2ccc(C(F)(F)F)cc2)C1 (stereo not shown) [Cpd. No. 34, N-((1-(4-(trifluoromethyl)phenyl)-1,2,3,4-tetrahydro-1,5-naphthyridin-3-yl)methyl)acetamide-2,2,2-d3]
3 | < 1000 | O=C(CC(F)(F)F)NCC1Cc2ncccc2N(c2ccc(C(F)(F)F)cc2)C1 (stereo not shown) [Cpd. No. 38, 3,3,3-trifluoro-N-((1-(4-(trifluoromethyl)phenyl)-1,2,3,4-tetrahydro-1,5-naphthyridin-3-yl)methyl)propanamide]
4 | < 1000 | CC(C)C(=O)NCC1Cc2ncccc2N(c2ccc(C(F)(F)F)cc2)C1 (stereo not shown) [Cpd. No. 39, N-((1-(4-(trifluoromethyl)phenyl)-1,2,3,4-tetrahydro-1,5-naphthyridin-3-yl)methyl)isobutyramide]
5 | 1000 to 10000 | O=C(NCC1Cc2ncccc2N(c2ccc(C(F)(F)F)cc2)C1)c1ccccc1 (stereo not shown) [Cpd. No. 40, N-((1-(4-(trifluoromethyl)phenyl)-1,2,3,4-tetrahydro-1,5-naphthyridin-3-yl)methyl)benzamide]
6 | < 1000 | CNC(=O)NCC1Cc2ncccc2N(c2ccc(C(F)(F)F)cc2)C1 (stereo not shown) [Cpd. No. 43, 1-methyl-3-((1-(4-(trifluoromethyl)phenyl)-1,2,3,4-tetrahydro-1,5-naphthyridin-3-yl)methyl)urea]
7 | < 1000 | CC(=O)NCC1Cc2nc(N)ccc2N(c2ccc(C(F)(F)F)cc2)C1 (stereo not shown) [Cpd. No. 45, N-((6-amino-1-(4-(trifluoromethyl)phenyl)-1,2,3,4-tetrahydro-1,5-naphthyridin-3-yl)methyl)acetamide]
8 | < 1000 | CC(=O)NCC1(C)Cc2ncccc2N(c2ccc(C(F)(F)F)cc2)C1 (stereo not shown) [Cpd. No. 47, N-((3-methyl-1-(4-(trifluoromethyl)phenyl)-1,2,3,4-tetrahydro-1,5-naphthyridin-3-yl)methyl)acetamide]
9 | < 1000 | CC(=O)NCC1Cc2ncc(F)cc2N(c2ccc(C(F)(F)F)cc2)C1 (stereo not shown) [Cpd. No. 50, N-((7-fluoro-1-(4-(trifluoromethyl)phenyl)-1,2,3,4-tetrahydro-1,5-naphthyridin-3-yl)methyl)acetamide]
10 | < 1000 | CC(=O)NCC1Cc2ncc(Cl)cc2N(c2ccc(C(F)(F)F)cc2)C1 (stereo not shown) [Cpd. No. 51, N-((7-chloro-1-(4-(trifluoromethyl)phenyl)-1,2,3,4-tetrahydro-1,5-naphthyridin-3-yl)methyl)acetamide]
11 | < 1000 | CC(=O)NCC1Cc2nc(N(C)C)ccc2N(c2ccc(C(F)(F)F)cc2)C1 (stereo not shown) [Cpd. No. 52, N-((6-(dimethylamino)-1-(4-(trifluoromethyl)phenyl)-1,2,3,4-tetrahydro-1,5-naphthyridin-3-yl)methyl)acetamide]
12 | 1000 to 10000 | CC(=O)NCC1Cc2ncccc2N(c2ccc(C(F)(F)F)cn2)C1 (stereo not shown) [Cpd. No. 53, N-((1-(5-(trifluoromethyl)pyridin-2-yl)-1,2,3,4-tetrahydro-1,5-naphthyridin-3-yl)methyl)acetamide]
13 | < 1000 | CCc1ccc2c(n1)CC(CNC(C)=O)CN2c1ccc(C(F)(F)F)cc1 (stereo not shown) [Cpd. No. 55, N-((6-ethyl-1-(4-(trifluoromethyl)phenyl)-1,2,3,4-tetrahydro-1,5-naphthyridin-3-yl)methyl)acetamide]
14 | < 1000 | CC(=O)NCC1Cc2nccnc2N(c2ccc(C(F)(F)F)cc2)C1 (stereo not shown) [Cpd. No. 56, N-((5-(4-(trifluoromethyl)phenyl)-5,6,7,8-tetrahydropyrido[2,3-b]pyrazin-7-yl)methyl)acetamide]
15 | < 1000 | CC(=O)NCC1Cc2nc(OC(F)F)ccc2N(c2ccc(C(F)(F)F)cc2)C1 (stereo not shown) [Cpd. No. 60, N-((6-(difluoromethoxy)-1-(4-(trifluoromethyl)phenyl)-1,2,3,4-tetrahydro-1,5-naphthyridin-3-yl)methyl)acetamide]
16 | 1000 to 10000 | CC(=O)NCC1Cc2nc(C(F)F)ccc2N(c2ccc(C(F)(F)F)cc2)C1 (stereo not shown) [Cpd. No. 61, N-((6-(difluoromethyl)-1-(4-(trifluoromethyl)phenyl)-1,2,3,4-tetrahydro-1,5-naphthyridin-3-yl)methyl)acetamide]
17 | < 1000 | CC(=O)NCC1Cc2nc(Br)ccc2N(c2ccc(C(F)(F)F)cc2)C1 (stereo not shown) [Cpd. No. 62, N-((6-bromo-1-(4-(trifluoromethyl)phenyl)-1,2,3,4-tetrahydro-1,5-naphthyridin-3-yl)methyl)acetamide]

Continued, molecule first:

Row | SMILES | IC50 [nM]
18 | O=C1CCCN1CC1Cc2ncccc2N(c2ccc(C(F)(F)F)cc2)C1 (stereo not shown) [Cpd. No. 31, 1-((1-(4-(trifluoromethyl)phenyl)-1,2,3,4-tetrahydro-1,5-naphthyridin-3-yl)methyl)pyrrolidin-2-one] | > 10000
19 | CC(=O)NCc1cc2c(c(-c3ccc(C(F)(F)F)cc3)c1)CNCC2 [Cpd. No. 32, N-((8-(4-(trifluoromethyl)phenyl)-1,2,3,4-tetrahydroisoquinolin-6-yl)methyl)acetamide] | > 10000
20 | C=CC(=O)NCc1cc2c(c(-c3ccc(C(F)(F)F)cc3)c1)CNCC2 [Cpd. No. 33, N-((8-(4-(trifluoromethyl)phenyl)-1,2,3,4-tetrahydroisoquinolin-6-yl)methyl)acrylamide] | < 1000
21 | O=C(Cc1ccccc1)NCC1Cc2ncccc2N(c2ccc(C(F)(F)F)cc2)C1 (stereo not shown) [Cpd. No. 35, 2-phenyl-N-((1-(4-(trifluoromethyl)phenyl)-1,2,3,4-tetrahydro-1,5-naphthyridin-3-yl)methyl)acetamide] | 1000 to 10000
22 | C=CC(=O)N(CC(=O)O)Cc1cc2c(c(-c3ccc(C(F)(F)F)cc3)c1)CNCC2 [Cpd. No. 36, N-acryloyl-N-((8-(4-(trifluoromethyl)phenyl)-1,2,3,4-tetrahydroisoquinolin-6-yl)methyl)glycine] | > 10000
23 | CC(=O)N(CC(=O)O)Cc1cc2c(c(-c3ccc(C(F)(F)F)cc3)c1)CNCC2 [Cpd. No. 37, N-acetyl-N-((8-(4-(trifluoromethyl)phenyl)-1,2,3,4-tetrahydroisoquinolin-6-yl)methyl)glycine] | > 10000
24 | C=CC(=O)N1CCN(C2Cc3ccccc3N(c3ccc(C(F)(F)F)cc3)C2)CC1 (stereo not shown) [Cpd. No. 41, 1-(4-(1-(4-(trifluoromethyl)phenyl)-1,2,3,4-tetrahydroquinolin-3-yl)piperazin-1-yl)prop-2-en-1-one] | < 1000
25 | CC(=O)NCC1Cc2nc(C(F)(F)F)ccc2N(c2ccc(C(F)(F)F)cc2)C1 (stereo not shown) [Cpd. No. 42, N-((6-(trifluoromethyl)-1-(4-(trifluoromethyl)phenyl)-1,2,3,4-tetrahydro-1,5-naphthyridin-3-yl)methyl)acetamide] | < 1000
26 | CC(=O)NCC1Cc2ncc(Br)cc2N(c2ccc(C(F)(F)F)cc2)C1 (stereo not shown) [Cpd. No. 44, N-((7-bromo-1-(4-(trifluoromethyl)phenyl)-1,2,3,4-tetrahydro-1,5-naphthyridin-3-yl)methyl)acetamide] | < 1000
27 | CC(=O)NCc1cc2c(c(-c3ccc(C(F)(F)F)cc3)c1)CN(C)CC2 [Cpd. No. 46, N-((2-methyl-8-(4-(trifluoromethyl)phenyl)-1,2,3,4-tetrahydroisoquinolin-6-yl)methyl)acetamide] | > 10000
28 | CC(=O)NCC1Cc2c(ccc(=O)n2C)N(c2ccc(C(F)(F)F)cc2)C1 (stereo not shown) [Cpd. No. 48, N-((5-methyl-6-oxo-1-(4-(trifluoromethyl)phenyl)-1,2,3,4,5,6-hexahydro-1,5-naphthyridin-3-yl)methyl)acetamide] | > 10000
29 | CC(=O)NCC1Cc2ncc(N)cc2N(c2ccc(C(F)(F)F)cc2)C1 (stereo not shown) [Cpd. No. 49, N-((7-amino-1-(4-(trifluoromethyl)phenyl)-1,2,3,4-tetrahydro-1,5-naphthyridin-3-yl)methyl)acetamide] | 1000 to 10000
30 | CC(=O)NCC1Cc2c(ccn(C)c2=O)N(c2ccc(C(F)(F)F)cc2)C1 (stereo not shown) [Cpd. No. 54, N-((6-methyl-5-oxo-1-(4-(trifluoromethyl)phenyl)-1,2,3,4,5,6-hexahydro-1,6-naphthyridin-3-yl)methyl)acetamide] | < 1000
31 | CC(=O)NCC1Cc2nc(C3CC3)ccc2N(c2ccc(C(F)(F)F)cc2)C1 (stereo not shown) [Cpd. No. 57, N-((6-cyclopropyl-1-(4-(trifluoromethyl)phenyl)-1,2,3,4-tetrahydro-1,5-naphthyridin-3-yl)methyl)acetamide] | < 1000
32 | CC(=O)NCC1Cc2nc(C#N)ccc2N(c2ccc(C(F)(F)F)cc2)C1 (stereo not shown) [Cpd. No. 58, N-((6-cyano-1-(4-(trifluoromethyl)phenyl)-1,2,3,4-tetrahydro-1,5-naphthyridin-3-yl)methyl)acetamide] | > 10000
33 | CC(=O)NCC1Cc2nc(C(N)=O)ccc2N(c2ccc(C(F)(F)F)cc2)C1 (stereo not shown) [Cpd. No. 59, 7-(acetamidomethyl)-5-(4-(trifluoromethyl)phenyl)-5,6,7,8-tetrahydro-1,5-naphthyridine-2-carboxamide] | > 10000
34 | C#Cc1ccc2c(n1)CC(CNC(C)=O)CN2c1ccc(C(F)(F)F)cc1 (stereo not shown) [Cpd. No. 63, N-((6-ethynyl-1-(4-(trifluoromethyl)phenyl)-1,2,3,4-tetrahydro-1,5-naphthyridin-3-yl)methyl)acetamide] | < 1000
